Values of other authors as cited in patent US20080312245A1, “Methods and compositions for treating acne and other infectious diseases” (priority 2007, published 2008).

solubility in alcohol: slightly soluble
SMILES: Cc1ncc([N+](=O)[O-])n1CCO [Metronidazole, 2-methyl-5-nitro-1H-imidazole-1-ethanol]
